Source: patent US20130071854A1, “METHODS FOR THE IDENTIFICATION AND CHARACTERIZATION OF HDAC INTERACTING COMPOUNDS” (priority 2009, published 2013)
pEC50, pIC50, pKd: −log10 of the molar value. Like-named read-outs stand apart in the source and are kept apart here.

What was measured:
[1] = system: acetylated tubulin; test: Cell-based tubulin acetylation assay (immunofluorescence, western blotting); set-up: species or system human; details: for tubulin acetylation (in words): K562 and HeLa cells, immunofluorescence and western blotting
[2] = system: EHMT2; test: Chemoproteomic binding profiling, K562 cell extract, SAHA/ITF2357 probe matrix (Kd app), ELSA (ELM-SANT) domain proteins group; set-up: species or system human; details: protein EHMT2
[3] = system: MIER3; test: Chemoproteomic binding profiling, K562 cell extract, SAHA/ITF2357 probe matrix (Kd app), ELSA (ELM-SANT) domain protein; set-up: species or system human; details: ELSA (ELM-SANT) domain proteins
[4] = system: acetylated histones H3 and H4; test: Cell-based histone acetylation assay (immunofluorescence, western blotting); set-up: species or system human; details: K562 and HeLa cells
[5] = biological target: T1, HDAC1 (Homo sapiens, UniProt Q13547); test: Chemoproteomic binding profiling, K562 cell extract, SAHA/ITF2357 probe matrix (Kd app); details: protein HDAC1; class I HDAC; read-out: Kd^app HDAC1
T1 construct: used to probe endogenous HDACs in K562 whole cell extracts; endogenous in cells
T1 sequence (Q13547 whole entry): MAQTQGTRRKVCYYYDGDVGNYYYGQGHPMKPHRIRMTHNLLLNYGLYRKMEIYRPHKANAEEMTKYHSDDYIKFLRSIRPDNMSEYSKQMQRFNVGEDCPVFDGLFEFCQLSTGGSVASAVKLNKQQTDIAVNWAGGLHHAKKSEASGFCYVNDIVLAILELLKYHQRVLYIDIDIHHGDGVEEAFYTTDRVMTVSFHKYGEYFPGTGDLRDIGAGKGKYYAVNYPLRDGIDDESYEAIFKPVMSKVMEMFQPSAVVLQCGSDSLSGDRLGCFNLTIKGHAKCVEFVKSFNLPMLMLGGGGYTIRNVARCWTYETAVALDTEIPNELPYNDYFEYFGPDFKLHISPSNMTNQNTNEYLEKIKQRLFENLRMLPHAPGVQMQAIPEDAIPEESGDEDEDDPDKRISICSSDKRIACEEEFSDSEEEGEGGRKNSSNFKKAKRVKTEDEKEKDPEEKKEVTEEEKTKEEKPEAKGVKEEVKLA

[6] = biological target: T2, HDAC6 (Homo sapiens, UniProt Q9UBN7); test: as above; set-up: used to probe endogenous HDACs in K562 whole cell extracts; endogenous in cells; details: for binding profile for HDAC6 (in words): K562 cell extract
T2 sequence (Q9UBN7 1-1215): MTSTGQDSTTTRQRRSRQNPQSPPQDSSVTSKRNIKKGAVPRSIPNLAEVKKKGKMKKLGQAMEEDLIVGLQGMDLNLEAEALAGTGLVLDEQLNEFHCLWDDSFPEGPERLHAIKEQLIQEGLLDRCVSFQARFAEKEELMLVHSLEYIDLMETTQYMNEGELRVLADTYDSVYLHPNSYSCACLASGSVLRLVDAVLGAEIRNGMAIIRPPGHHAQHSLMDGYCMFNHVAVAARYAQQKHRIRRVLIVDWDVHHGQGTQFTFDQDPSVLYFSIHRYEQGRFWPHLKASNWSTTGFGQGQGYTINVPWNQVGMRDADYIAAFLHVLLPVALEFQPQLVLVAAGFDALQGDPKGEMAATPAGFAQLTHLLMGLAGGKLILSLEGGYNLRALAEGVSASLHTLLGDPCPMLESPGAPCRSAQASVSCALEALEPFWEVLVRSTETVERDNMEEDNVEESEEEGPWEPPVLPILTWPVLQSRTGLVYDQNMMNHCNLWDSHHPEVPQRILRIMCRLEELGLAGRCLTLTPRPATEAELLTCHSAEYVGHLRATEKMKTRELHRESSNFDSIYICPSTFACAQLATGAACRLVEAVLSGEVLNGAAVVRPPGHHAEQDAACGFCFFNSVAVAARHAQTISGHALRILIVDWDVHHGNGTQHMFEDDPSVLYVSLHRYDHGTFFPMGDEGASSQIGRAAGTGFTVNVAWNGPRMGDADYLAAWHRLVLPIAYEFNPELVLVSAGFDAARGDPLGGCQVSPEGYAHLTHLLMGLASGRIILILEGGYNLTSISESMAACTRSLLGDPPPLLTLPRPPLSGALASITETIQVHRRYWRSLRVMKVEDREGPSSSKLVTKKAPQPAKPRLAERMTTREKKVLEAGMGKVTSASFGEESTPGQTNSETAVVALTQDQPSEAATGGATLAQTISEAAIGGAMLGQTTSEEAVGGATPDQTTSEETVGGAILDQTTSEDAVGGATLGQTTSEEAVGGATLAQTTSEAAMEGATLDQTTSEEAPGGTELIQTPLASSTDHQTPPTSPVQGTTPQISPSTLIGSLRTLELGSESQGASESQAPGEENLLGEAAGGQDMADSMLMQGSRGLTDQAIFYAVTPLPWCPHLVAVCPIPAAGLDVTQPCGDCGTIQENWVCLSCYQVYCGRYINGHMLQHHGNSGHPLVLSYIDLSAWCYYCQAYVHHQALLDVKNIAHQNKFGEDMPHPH

[7] = system: NuRD complex; test: as above; set-up: species or system human
[8] = system: MIER1; test: Chemoproteomic binding profiling, K562 cell extract, SAHA/ITF2357 probe matrix (Kd app), ELSA (ELM-SANT) domain protein; set-up: species or system human; details: ELSA (ELM-SANT) domain proteins
[9] = biological target: T3, ALDH2 (Homo sapiens, UniProt P05091); test: Competition binding assay in cell lysate, affinity matrix, MS
T3 construct: endogenous in cells
T3 sequence (P05091 18-517): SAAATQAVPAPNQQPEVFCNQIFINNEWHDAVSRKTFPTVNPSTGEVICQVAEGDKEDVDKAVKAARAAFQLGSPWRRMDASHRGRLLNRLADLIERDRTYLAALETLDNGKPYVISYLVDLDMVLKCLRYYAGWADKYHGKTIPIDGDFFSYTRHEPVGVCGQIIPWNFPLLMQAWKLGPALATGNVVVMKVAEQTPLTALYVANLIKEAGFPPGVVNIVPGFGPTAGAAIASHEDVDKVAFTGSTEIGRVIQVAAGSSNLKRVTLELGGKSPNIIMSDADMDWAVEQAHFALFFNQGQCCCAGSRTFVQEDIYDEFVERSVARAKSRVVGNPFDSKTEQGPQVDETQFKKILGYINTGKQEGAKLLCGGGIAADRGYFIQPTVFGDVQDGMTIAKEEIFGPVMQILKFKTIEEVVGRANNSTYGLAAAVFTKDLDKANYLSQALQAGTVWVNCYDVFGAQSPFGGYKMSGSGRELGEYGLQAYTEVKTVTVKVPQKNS

[10] = biological target: T4, PTER (Homo sapiens, UniProt Q96BW5); test: as above
T4 construct: endogenous in cells
T4 sequence (Q96BW5 1-349): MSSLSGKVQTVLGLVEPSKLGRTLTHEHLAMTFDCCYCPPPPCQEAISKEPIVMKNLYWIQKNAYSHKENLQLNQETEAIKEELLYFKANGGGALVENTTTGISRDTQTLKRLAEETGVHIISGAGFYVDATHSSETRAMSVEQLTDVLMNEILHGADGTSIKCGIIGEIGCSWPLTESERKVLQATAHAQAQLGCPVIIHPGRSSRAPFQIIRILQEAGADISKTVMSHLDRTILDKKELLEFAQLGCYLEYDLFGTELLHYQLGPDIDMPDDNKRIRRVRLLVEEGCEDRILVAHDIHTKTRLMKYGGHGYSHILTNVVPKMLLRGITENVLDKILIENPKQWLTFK

[11] = system: GATAD2B; test: Competition binding assay in cell lysate, affinity matrix, MS (Mi-2/NuRD interactor); details: K-562 cell lysate
[12] = protein HDAC6, class II HDAC, read-out: Kd^app HDAC6
[13] = protein CHD4, NuRD complex, read-out: Kd^app CHD4
[14] = protein GATAD2A, NuRD complex, read-out: Kd^app GATAD2A
[15] = protein GATAD2B, NuRD complex, read-out: Kd^app GATAD2B
[16] = protein MBD3, NuRD complex, read-out: Kd^app MBD3
[17] = protein MTA1, NuRD complex, read-out: Kd^app MTA1
[18] = protein MTA2, NuRD complex, read-out: Kd^app MTA2
[19] = protein MTA3, NuRD complex, read-out: Kd^app MTA3
[20] = protein MBD2, NuRD complex, read-out: Kd^app MBD2

pKd [5] | SMILES | tubulin acetylation (in words) [1] | pKd [2] | pKd [3] | histone acetylation (in words) [4] | binding profile for HDAC6 (in words) [6] | pKd [6, 12] | pKd [7, 13] | pKd [7, 14] | pKd [7, 15] | pKd [7, 16] | pKd [7, 17] | pKd [7, 18] | pKd [7, 19] | pKd [8] | pIC50 [10] | pIC50 [11] | pKd [7, 20] | also measured
< 4.22 | CCCCOc1ccc(CC(=O)NO)cc1 [bufexamac] | hyperacetylation of tubulin | 3.98 | 3.78 | did not affect the acetylation of histones | selectivity for HDAC6 and HDAC10 | 5.00 | 3.41 | 3.24 | < 4.22 | 3.39 | 3.77 | 3.26 | 3.20 | 3.44 | – | – | – | pEC50 ([1]; Homo sapiens, HeLa cells, treated 4 h, western blotting): 5.54; tubulin acetylation (in words) ([1]; listed as Bufexamac): strong increase in acetylated tubulin
– | O=C(CCCCCCC(=O)Nc1ccccc1)NO [SAHA, suberoylanilide hydroxamic acid] | increased steady state acetylation of tubulin and histones | – | – | increased steady state acetylation of tubulin and histones | – | – | – | – | – | – | – | – | – | – | ≤ 5.00 | 5.60 | – | pIC50 ([9]; IC50, ALDH2, K-562 cell lysate): 6.20; pIC50 ([9]; IC50, ALDH2, mix of Jurkat and Ramos cell lysates): 5.32; pIC50 ([10]; IC50, PTER, mix of Jurkat and Ramos cell lysates): 5.00
– | Nc1ccccc1NC(=O)c1ccc(CNC(=O)OCc2cccnc2)cc1 [MS-275] | – | < 3.52 | < 3.52 | – | – | – | – | – | – | – | – | – | – | < 3.52 | ≤ 3.52 | 3.52 | – | pIC50 ([9]; read-out: IC50): ≤ 3.52; pKd ([7]; read-out: Kd^app CHD4): < 3.52; pKd ([7]; read-out: Kd^app GATAD2A): < 3.52; pKd ([7]; read-out: Kd^app GATAD2B): < 3.52; pKd ([7]; read-out: Kd^app MBD2): < 3.52; pKd ([7]; read-out: Kd^app MBD3): < 3.52; pKd ([7]; read-out: Kd^app MTA1): < 3.52; pKd ([7]; read-out: Kd^app MTA2): < 3.52; pKd ([7]; read-out: Kd^app MTA3): < 3.52
3.45 | CCCC(CCC)C(=O)O [valproate, valproic acid] | did not affect tubulin | 2.92 | 3.46 | elicited staining of acetylated histones | – | – | 3.26 | 2.99 | 3.07 | 3.03 | 3.28 | 3.00 | 3.18 | 3.29 | – | – | 2.89 | pKd ([6]; read-out: Kd^app HDAC6, protein HDAC6, class II HDAC): < 5.00
– | O=C(/C=C/c1cccc(S(=O)(=O)Nc2ccccc2)c1)NO [belinostat] | – | – | – | – | – | – | – | – | – | – | – | – | – | 6.77 | – | – | – | pKd [6]: 6.39

SMILES | pKd [5] | tubulin acetylation (in words) [1] | pKd [2] | pKd [3] | histone acetylation (in words) [4] | binding profile for HDAC6 (in words) [6] | pKd [6, 12] | pKd [7, 13] | pKd [7, 14] | pKd [7, 15] | pKd [7, 16] | pKd [7, 17] | pKd [7, 18] | pKd [7, 19] | pKd [8] | pIC50 [10] | pIC50 [11] | pKd [7, 20] | also measured
Nc1ccccc1NC(=O)CCCCCCC(=O)Nc1ccccc1 [BML-210] | 4.44 | – | < 4.07 | 4.33 | – | complete loss of potency for class IIb | < 4.07 | 4.52 | < 4.07 | 4.16 | 4.23 | 4.82 | – | 4.16 | 4.30 | – | – | 4.08 | –
